Source: patent publication US20160317632A1, “USE OF CBP/EP300 BROMODOMAIN INHIBITORS FOR CANCER IMMUNOTHERAPY” (GENENTECH, INC., priority 2013, published 2016)

How the values were obtained:
Type in all cases: cell-based, human
CD8+ T cells [1] = assay: IFNγ and TNFα in supernatants of stimulated CD8+ T cells by Luminex; conditions: supernatants 3 days after stimulation
Procedure: (§1) Naïve CD4+CD45RA+ T cells were isolated from healthy human PBMCs using Miltenyi Biotec naïve human T cell isolation kit (cat#130-094-131). Isolated cells were cultured at 10e6 cells/ml under iTreg-differentiation conditions using Dynabeads (Invitrogen; cat#11132D) at 1:1 ratio of beads to cells+human recombinant IL-2 (10 ng/ml) (R&D, cat#202-IL-010)+human recombinant TGFb (10 ng/ml) (Invitrogen; cat# PHG9204). After 16 hours the CBP inhibitors CBP/EP300(3) and CBP/EP300(4) were added using DMSO as control. CD8+ T cells were isolated from healthy human PBMCs using Militenyi Biotec human CD8 T cell isolation kit (cat#130-095-236) and cultured at 10e6 cells/ml with human T activator Dynabeads at 1:1 ratio of cells to cells with the addition of 10 ng/ml of recombinant human IL-2. 3 days after CD8+ T cell stimulation supernatants were collected and analyzed for CD8+ T cell associated effector function cytokines IFNg and TNFα by Luminex. Data in FIG. 10 show IFNγ (A) and TNFα (B) (pg/ml) secreted in the supernatants of CD8+ T cells stimulated with compounds CBP/EP300(3) and CBP/EP300(4), using DMSO as control.

CD8+ T cells [2] = assay: gene expression in stimulated CD8+ T cells by q-RT-PCR (FIGS. 9-10); conditions: for expression of LAG3, TIM3 and CTLA4: FIG. 9; for GZMB expression (effector function of CD8+ T cells): FIG. 10
Procedure: as §1
(§2) 3 days after CD8+ T cell stimulation mRNA was extracted using mRNA Catcher™ PLUS Purification Kit (Invitrogen; K1570-02). Gene expression of Lag3, CTLA4 and TIM3, genes encoding inhibitory receptors on the surface of CD8+ T cells and under the transcriptional control of CBP/p300, was analyzed by q-RT-PCR. Foxp3 expression and Granzyme B (GZMB) expression, a gene encoding effector function of CD8+ T cells, were also analyzed by q-RT-PCR. Beta-2-microglobulin (B2M) was used as house-keeping gene.

iTreg cells [3] = assay: Foxp3 expression in iTreg differentiating cells by q-RT-PCR (FIG. 7)
Procedure: as §1, with “Data in FIG. 10 show IFNγ (A) and TNFα (B) (pg/ml) secreted in the supernatants of CD8+ T cells stimulated with compounds CBP/EP300(3) and CBP/EP300(4), using DMSO as control.” left out
as §2, with “Beta-2-microglobulin (B2M) was used as house-keeping gene.” left out

iTreg cells [4] = assay: Foxp3 protein expression in iTreg cells by flow cytometry (FIG. 8); conditions: 4 days after stimulation
Procedure: as §1, with “Data in FIG. 10 show IFNγ (A) and TNFα (B) (pg/ml) secreted in the supernatants of CD8+ T cells stimulated with compounds CBP/EP300(3) and CBP/EP300(4), using DMSO as control.” left out
Cells from iTreg cultures were first stained with CD4 APC-CY7 and CD25 Pacific blue (both from BD pharmigen, cat#557811 and 560355, respectively); this was followed by fixation/permeabilization step and staining for intracellular Foxp3 FITC using human Foxp3 staining kit (eBioscience; cat#77-5774-40) according to the manufacturer protocol. FOXP3 expression by FACS was typically measured 4 d post-activation.

Row | SMILES | cytokine production (IFNγ, TNFα) by CD8+ T cells (CD8+ T cells [1]) | expression of LAG3, TIM3 and CTLA4 (CD8+ T cells [2]) | GZMB expression (effector function of CD8+ T cells) (CD8+ T cells [2]) | Foxp3 expression, fold change over unstimulated naïve T cells (iTreg cells [3]) | Foxp3 protein expression (iTreg cells [4])
1 | C[C@H]1Nc2c(cccc2C(=O)NCCCN2CCOc3ccccc32)NC1=O [CBP/EP300(3)] | minimally affect | dose-dependent reduction in the expression of LAG3, TIM3 and CTLA4 | did not affect effector function of CD8+ T cells | decrease Foxp3 expression in iTreg cells in a dose dependent manner | decrease Foxp3 protein expression in iTreg cells
2 | COc1ccc2c(c1)N(CCCNC(=O)c1cccc3c1N[C@H](C)C(=O)N3)CCC2 [CBP/EP300(4)] | minimally affect | dose-dependent reduction in the expression of LAG3, TIM3 and CTLA4 | did not affect effector function of CD8+ T cells | decrease Foxp3 expression in iTreg cells in a dose dependent manner | decrease Foxp3 protein expression in iTreg cells
